Assay results: patent US11684607B2, “Secnidazole for use in the treatment of bacterial vaginosis” (priority 2014, dated 2023)

Key:
[1] = Safety evaluation of SYM-1219 alone or in combination with EE2/NET; assay type: in vivo, human; details: 2 g
Description: Methods: Fifty-four (54) healthy female subjects, ages 18-65, received EE2/NET alone and in combination, where SYM-1219+EE2/NET were co-administered on Day 1 (Group B1; N=27) or SYM-1219 on Day 1 and EE2/NET on Day 2 (Group B2; N=27). Serial blood samples were drawn to measure plasma concentrations of EE2/NET. […] Safety was evaluated by recording of adverse events, vital signs, ECGs and standard laboratory tests.

bacterial vaginosis = assay: Phase 2 double-blind placebo-controlled study, clinical outcome responder (clinical cure) in women with bacterial vaginosis; assay type: in vivo, human
From the text: (§1) The study was designed in accordance with FDA guidance for pivotal bacterial vaginosis trials with a primary end point clinical cure in the Modified Intent-to-Treat (mITT) population at day 21 to 30 versus placebo (two-sided test at alpha=0.05). Subjects were recruited to the study they presented with the following Amsel criteria: presence of typical discharge. a positive KOH Whiff test vaginal fluid pH greater than or equal to 4.7, and the presence of “clue cells” (epithelial cells with adhering bacteria) on microscopic examination.

[2] = set-up: species or system human; details: in vivo
From the text: as §1

## Cc1ncc([N+](=O)[O-])n1CC(C)O (stereo not shown) [SYM-1219, 1-(2-hydroxypropyl)-2-methyl-5-nitromidazole]
[1]
  changes in vital signs, ECG or laboratory parameters: no significant changes
  safety and tolerability: safe and well-tolerated
Bacterial vaginosis; 2 gram single dose, subjects with 3 or fewer as well as 4 or more episodes in the past 12 months
  effectiveness in treating bacterial vaginosis: effective
Bacterial vaginosis; 2 gram single-dose
  effectiveness for bacterial vaginosis compared with placebo: effective
Bacterial vaginosis; single 2 g oral dose, 21-30 days after treatment
  clinical cure rate: 67.7%
[2]; female, human
  Acute sinusitis: Events: 0 n
  Acute sinusitis: Subjects: 0 n
  Adverse Event: Abdominal pain: 0%
  Adverse Event: Diarrhea: 0%
  Adverse Event: Fungal Infection: 3%
  Adverse Event: Headache: 1%
  Adverse Event: Metallic/Unusual Taste: 1%
  Adverse Event: Nausea: 1%
  Adverse Event: Vulva/Vaginal Irritation: 1%
  Alanine aminotransferase increased: Events: 1 n
  Any Adverse Event, Overall: Events: 19 n
  Aspartate aminotransferase increased: Events: 1 n
  Candida infection: Events: 0 n
  Candida infection: Subjects: 0 n
  Chlamydial infection: Events: 1 n
  Chromaturia: Events: 1 n
  Dizziness: Events: 1 n
  Dysgeusia: Events: 1 n
  Fungal infection: Events: 0 n
  Fungal infection: Subjects: 0 n
  Gastrointestinal disorders, Overall: Events: 1 n
  Gonorrhoea: Events: 1 n
  Headache: Events: 1 n
  Infections and infestations, Overall: Events: 7 n
  Injury, poisoning and procedural complications, Overall: Events: 1 n
  Investigations, Overall: Events: 2 n
  Nausea: Events: 1 n
  Nervous system disorders, Overall: Events: 3 n
  Oropharyngeal pain: Events: 1 n
  Renal and urinary disorders, Overall: Events: 1 n
  Reproductive system and breast disorders, Overall: Events: 3 n
  Respiratory, thoracic and mediastinal disorders, Overall: Events: 1 n
  Surgical and medical procedures, Overall: Events: 0 n
  Surgical and medical procedures, Overall: Subjects: 0 n
  Thermal burn: Events: 1 n
  Tooth abscess: Events: 1 n
  Tooth extraction: Events: 0 n
  Tooth extraction: Subjects: 0 n
  Tooth infection: Events: 1 n
  Upper respiratory tract infection: Events: 0 n
  Upper respiratory tract infection: Subjects: 0 n
  Urinary tract infection: Events: 1 n
  Vaginal discharge: Events: 1 n
  Vaginal odor: Events: 1 n
  Vulvovaginal mycotic infection: Events: 2 n
  Vulvovaginal pruritus: Events: 1 n
[2]
  tolerability: surprisingly well tolerated
